Assay results reported in PubChem BioAssay AID1963960 (Molecular Pharmacology Branch, DTP, NCI, 2024).
Where “and” joins values, the source holds several entries; their conditions need not be identical. Equal entries are not always repeated.

System: MDA-MB-468 spheroids with HUVEC/MSC, viability
Test: Anticancer human tumor MDA-MB-468 cell line growth inhibition [PI3K];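 note: spheroids exposed to agents for seven days before readout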;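 for viability, T/C: 100% = DMSO vehicle control viability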
Settings: for viability, T/C: stronger effect = lower value
Source text: Combinatorial screen of targeted agents with the PI3K inhibitors inavolisib, alpelisib, duvelisib, and copanlisib in multi-cell type tumor spheroids
A high-throughput screen of multi-cell type tumor spheroids was designed to identify active combinations of targeted small molecules and PI3K pathway inhibitors. Complex spheroids include a stromal component modeled by human endothelial cells (HUVEC) and fibroblasts modeled by human mesenchymal stem cells (MSCs). The concentration ranges selected for each drug and investigational agent were based upon clinically achievable concentrations if the clinical Cmax of the agent was known.
Compounds. The drugs and investigational agents: inavolisib (NSC800729), alpelisib (NSC765974), duvelisib (NSC772469), copanlisib (NSC816437), ipatasertib (NSC767898), afuresertib (NSC778305), talazoparib (NSC767125), sapanisertib (NSC764658), selumetinib (NSC741078), tovorafenib (DAY101, NSC766906), vemurafenib (NSC761431), ravoxertinib (NSC781343), sotorasib (NSC818433), MRTX1133 (NSC 836407), abemaciclib (NSC 768073), palbociclib (NSC758247), venetoclax (NSC 766270), SY5609 (NSC837396), enzalutamide (NSC755605), and darolutamide (NSC825331), were obtained from the National Cancer Institute (NCI) Developmental Therapeutics Program Chemical Repository. The FDA-approved anticancer drug set is available from the NCI Developmental Therapeutics Program. […] The stock solutions were prepared in dimethyl sulfoxide (DMSO, Sigma-Aldrich, St. Louis, MO, cat. D2650) at 800-fold the tested concentration and stored at -70 degrees C prior to their use. All drugs and investigational agents were tested over a range starting from a high concentration at or near the clinical Cmax and decreasing in half-log increments. If the clinical Cmax for an agent had not been determined, the highest concentration tested was 10 microM.
Cell Culture. All cells were maintained in an incubator at 37 degrees C and 5% CO2 with 95% humidity. The PDC lines were cultured according to standard operating procedures established by the NCI PDMR (https://pdmr.cancer.gov/sops/default.htm). All PDCs were thawed and cultured in Matrigel-coated flasks prepared with a working solution of 1X Ham's F-12 nutrient mix, without supplementation (Invitrogen, Waltham, MA, cat. 11765054), 100 U/mL penicillin-streptomycin (Invitrogen, cat. 15140122), and 2.5% Matrigel (Corning Inc., Corning, NY, cat. 354248) for the first three passages. The 354836-022-R-J1-PDC, 475296-252-R-J1-PDC, and 997726-040-R-J2-PDC lines were cultured in 6A media, which includes advanced DMEM/F-12 (Thermo Fisher Scientific, cat. 12634028), 10 mM HEPES (Thermo Fisher Scientific, cat. 15630080), 1X GlutaMAX supplement (Thermo Fisher Scientific, cat. 35050061), 0.1 mg/mL primocin (InvivoGen, San Diego, CA, cat. ant-pm-2), 10% defined fetal bovine serum, heat inactivated (HyClone Laboratories Inc., Logan, UT, cat. SH30070.03HI), 50% L-WRN conditioned media (ATCC, cat. CRL-3276), 1.25 mM N-Acetyl-L-cysteine (Sigma-Aldrich, cat. A9165), 10 mM nicotinamide (Sigma-Aldrich, cat. N0636), 1X B-27 supplement (Thermo Fisher Scientific, cat. 17504044), 1X N-2 supplement (Thermo Fisher Scientific, cat. 17502048), and 10 microM Y-27632 dihydrochloride (Tocris Bioscience, Bristol, United Kingdom, cat. 1254). The 624824-186-R-J2-PDC line was cultured in 6C/Colon 1B media, which includes all 6A media components plus 50 ng/mL human EGF recombinant protein (Thermo Fisher Scientific, cat. PHG0311). […]

[1] = compound alone, run of 05/09/2023

SMILES | viability, T/C (compound 0.0316 µM) | viability, T/C (compound 0.1 µM) | viability, T/C (compound 0.316 µM) | viability, T/C (compound 1 µM) | viability, T/C (compound 10 µM) | IC50 (curve of compound) | viability, T/C (compound 3.16 µM) | viability, T/C (compound 0.00316 µM) | further results
C#Cc1c(F)ccc2cc(O)cc(-c3ncc4c(N5CC6CCC(C5)N6)nc(OCC56CCCN5CC(F)C6)nc4c3F)c12 (stereo not drawn) | 81.9% [middle of 4 runs] | 92.6% [middle of 4 runs] | 92.2% [middle of 4 runs] | 100% [middle of 4 runs] | 55.1% [middle of 4 runs] | > 10 µM and 9.96 µM | – | – | –
C=CC(=O)N1CCN(c2nc(=O)n(-c3c(C)ccnc3C(C)C)c3nc(-c4c(O)cccc4F)c(F)cc23)C(C)C1 (stereo not drawn) | 94.1% [middle of 4 runs] | 96.2% [middle of 4 runs] | – | 107% (2×) and 89.3% and 105% | 78.6% [middle of 4 runs] | > 10 µM | 101% [middle of 4 runs] | – | –
CC(=O)c1c(C)c2cnc(Nc3ccc(N4CCNCC4)cn3)nc2n(C2CCCC2)c1=O | 99.3% [middle of 4 runs] | 97.2% [middle of 4 runs] | – | – | – | > 0.1 µM | – | 110% [middle of 4 runs] | viability, T/C (compound 0.000316 µM): 106% [middle of 4 runs]; viability, T/C (compound 0.001 µM): 93.5% [middle of 4 runs]; viability, T/C (compound 0.01 µM): 91% [middle of 4 runs]
CC(C)NCC(C(=O)N1CCN(c2ncnc3c2C(C)CC3O)CC1)c1ccc(Cl)cc1 (stereo not drawn) | 89.5% [middle of 4 runs] | 81.3% [middle of 4 runs] | – | 54.2% [middle of 4 runs] | 26.4% and 22.6% (2×) and 27% | 1.29 µM [middle of 4 runs] | 32.4% [middle of 4 runs] | – | –
CC(C)n1nc(-c2ccc3oc(N)nc3c2)c2c(N)ncnc21 | 64.6% [middle of 4 runs] | 19.3% [middle of 4 runs] | – | – | – | 44.4 nM [middle of 4 runs] | – | 93% [middle of 4 runs] | viability, T/C (compound 0.000316 µM): 101% [middle of 4 runs]; viability, T/C (compound 0.01 µM): 81.4% [middle of 4 runs]
CC(Cn1ccc(-c2ccc(C#N)c(Cl)c2)n1)NC(=O)c1cc(C(C)O)[nH]n1 (stereo not drawn) | 98% [middle of 4 runs] | 87.6% [middle of 4 runs] | 87.2% and 90.1% and 102% (2×) | 96.8% [middle of 4 runs] | – | > 10 µM | 83.8% [middle of 4 runs] | – | –
CC(Nc1ccc2c(c1)OCCn1cc(N3C(=O)OCC3C(F)F)nc1-2)C(N)=O (stereo not drawn) | 84.2% [middle of 8 runs] | 91.4% [middle of 8 runs] | 93.4% [middle of 8 runs] | 90.8% [middle of 8 runs] | – | – | – | 96.8% [middle of 8 runs] | viability, T/C (compound 0.01 µM): 88.1% [middle of 8 runs]; IC50 (compound alone, run of 05/08/2023): > 1 µM
CC(Nc1ncnc2nc[nH]c12)c1cc2cccc(Cl)c2c(=O)n1-c1ccccc1 (stereo not drawn) | 94% [middle of 8 runs] | 93.1% [middle of 8 runs] | 81% [middle of 8 runs] | 71.2% [middle of 8 runs] | 40.7% [middle of 8 runs] | – | 55.5% [middle of 8 runs] | – | IC50 [1]: 4.95 µM [middle of 8 runs]
CC1(C)CCC(CN2CCN(c3ccc(C(=O)NS(=O)(=O)c4ccc(NCC5CCOCC5)c([N+](=O)[O-])c4)c(Oc4cnc5[nH]ccc5c4)c3)CC2)=C(c2ccc(Cl)cc2)C1 | 92.6% [middle of 4 runs] | 88% [middle of 4 runs] | 97.9% [middle of 4 runs] | 99.4% [middle of 4 runs] | – | – | 72.8% [middle of 4 runs] | – | –
CC1(C)CCC(Nc2ncc(C(F)(F)F)c(-c3c[nH]c4c(P(C)(C)=O)c(C#N)ccc34)n2)CN1 (stereo not drawn) | 12% [middle of 4 runs] | 10.6% [middle of 4 runs] | 9.01% [middle of 4 runs] | 7.86% [middle of 4 runs] | 1.71% [middle of 4 runs] | < 0.0316 µM | 8.98% [middle of 4 runs] | – | –
CCN1CCN(Cc2ccc(Nc3ncc(F)c(-c4cc(F)c5nc(C)n(C(C)C)c5c4)n3)nc2)CC1 | 99.3% [middle of 4 runs] | – | 108% [middle of 4 runs] | 66.1% [middle of 4 runs] | – | > 1 µM | – | 98.5% and 101% (2×) and 106% | –
CNC(=O)c1ccc(N2C(=S)N(c3ccc(C#N)c(C(F)(F)F)c3)C(=O)C2(C)C)cc1F | 98% [middle of 4 runs] | 97% [middle of 4 runs] | 97% [middle of 4 runs] | 102% [middle of 4 runs] | 72.8% [middle of 4 runs] | > 10 µM | 93.3% [middle of 4 runs] | – | –
COc1c(OCCCN2CCOCC2)ccc2c3n(c(=NC(=O)c4cnc(N)nc4)nc12)CCN3 | 76.7% [middle of 8 runs] | 57.7% [middle of 8 runs] | 23.9% [middle of 8 runs] | 3.27% [middle of 8 runs] | – | – | – | 99.8% [middle of 8 runs] | viability, T/C (compound 0.01 µM): 90.4% [middle of 8 runs]; IC50 [1]: 122 nM [middle of 7 runs]
C[C@@H](NC(=O)c1ncnc(N)c1Cl)c1ncc(C(=O)Nc2cc(C(F)(F)F)c(Cl)cn2)s1 | 95.6% [middle of 4 runs] | 102% [middle of 4 runs] | – | 99.1% [middle of 4 runs] | – | > 10 µM | – | – | –
Cc1nc(NC(=O)N2CCCC2C(N)=O)sc1-c1ccnc(C(C)(C)C(F)(F)F)c1 (stereo not drawn) | 89% [middle of 8 runs] | 83.7% [middle of 8 runs] | 81.1% [middle of 8 runs] | 77.9% [middle of 8 runs] | 44.1% [middle of 8 runs] | – | 70.2% [middle of 7 runs] | – | –
Cn1cnc2c(F)c(Nc3ccc(Br)cc3Cl)c(C(=O)NOCCO)cc21 | – | – | – | – | – | > 3 µM | – | – | viability, T/C (compound 0.00949 µM): 82.8% [middle of 4 runs]; viability, T/C (compound 0.03 µM): 83.3% [middle of 4 runs]; viability, T/C (compound 0.0949 µM): 86.8% [middle of 4 runs]; viability, T/C (compound 0.3 µM): 87.3% [middle of 4 runs]; viability, T/C (compound 0.949 µM): 88.8% [middle of 4 runs]; viability, T/C (compound 3 µM): 64.7% [middle of 4 runs]
Cn1ncc(Cl)c1-c1cc(C(=O)NC(CN)Cc2cccc(F)c2)sc1Cl (stereo not drawn) | 86.1% [middle of 4 runs] | 69.6% and 66.7% (2×) and 83% | 53.9% [middle of 4 runs] | 34.2% [middle of 4 runs] | 15.4% [middle of 4 runs] | 462 nM [middle of 4 runs] | 29.6% [middle of 4 runs] | – | –
Cn1nccc1Nc1nccc(-c2ccn(C(CO)c3ccc(Cl)c(F)c3)c(=O)c2)n1 (stereo not drawn) | 92.3% [middle of 4 runs] | 92.9% [middle of 4 runs] | 101% [middle of 4 runs] | – | 81.9% [middle of 4 runs] | > 10 µM | – | – | –
Cn1ncnc1[C@H]1c2n[nH]c(=O)c3cc(F)cc(c23)N[C@@H]1c1ccc(F)cc1 | 87.3% [middle of 4 runs] | 56.5% [middle of 4 runs] | – | – | – | > 0.1 µM | – | 85.1% [middle of 4 runs] | viability, T/C (compound 0.000316 µM): 95.9% [middle of 4 runs]; viability, T/C (compound 0.001 µM): 93.9% [middle of 4 runs]; viability, T/C (compound 0.01 µM): 82.2% [middle of 4 runs]
